# Results from US9125913B2, “Bcl-2-selective apoptosis-inducing agents for the treatment of cancer and immune diseases” (AbbVie Inc., priority 2008, dated 2015).
# Test system: GST-Bcl-2
# Assay: TR-FRET binding assay, Bcl-2
# Settings: TR-FRET Ki values
# Description: Tb-anti-GST antibody was purchased from Invitrogen (Catalog No. PV4216).
# Representative compounds were serially diluted in dimethyl sulfoxide (DMSO) starting at 50 μM (2× starting concentration; 10% DMSO) and 10 μL were transferred into a 384-well plate.
# The samples were then mixed on a shaker for 1 minute and incubated for an additional 3 hours at room temperature. For each assay, the probe/antibody and protein/probe/antibody were included on each assay plate as negative and positive controls, respectively. Fluorescence was measured on the Envision (Perkin Elmer) using a 340/35 nm excitation filter and 520/525 (F-Bak peptide) and 495/510 nm (Tb-labeled anti-Histidine antibody) emission filters.
# The inhibition constant (Ki) is the dissociation constant of an enzyme-inhibitor complex or a protein/small molecule complex, wherein the small molecule is inhibiting binding of one protein to another protein or peptide. […] Inhibition constants were determined using Wang's equation (Wang Z-X., An Exact Mathematical Expression For Describing Competitive Binding Of Two Different Ligands To A Protein Molecule. FEBS Lett. 1995, 360:111-4).
row,Compound,Binding selectivity ratio (Bcl-XL Ki/Bcl-2 Ki)
1,"CN1CCN(Nc2ccc(S(=O)(=O)NC(=O)c3ccc(N4CCN(CC5=C(c6ccc(Cl)cc6)CC(C)(C)CC5)CC4)cc3Oc3ccc4[nH]ccc4c3)cc2S(=O)(=O)C(F)(F)F)CC1 [EXAMPLE 220, 4-(4-{[2-(4-chlorophenyl)-4,4-dimethylcyclohex-1-en-1-yl]methyl}piperazin-1-yl)-2-(1H-indol-5-yloxy)-N-({4-[(4-methylpiperazin-1-yl)amino]-3-[(trifluoromethyl)sulfonyl]phenyl}sulfonyl)benzamide]",163.7
2,"CN1CCC(Nc2ccc(S(=O)(=O)NC(=O)c3ccc(N4CCN(Cc5cc(OCCO)ccc5-c5ccc(Cl)cc5)CC4)cc3Oc3cccc4[nH]ccc34)cc2[N+](=O)[O-])CC1 [EXAMPLE 221, 4-(4-{[4′-chloro-4-(2-hydroxyethoxy)-1,1′-biphenyl-2-yl]methyl}piperazin-1-yl)-2-(1H-indol-4-yloxy)-N-({4-[(1-methylpiperidin-4-yl)amino]-3-nitrophenyl}sulfonyl)benzamide]",3005.2
3,"CC1(C)CCC(CN2CCN(c3ccc(C(=O)NS(=O)(=O)c4ccc(NCCCN5CCNC(=O)C5)c([N+](=O)[O-])c4)c(Oc4ccc5[nH]ccc5c4)c3)CC2)=C(c2ccc(Cl)cc2)C1 [EXAMPLE 222, 4-(4-{[2-(4-chlorophenyl)-4,4-dimethylcyclohex-1-en-1-yl]methyl}piperazin-1-yl)-2-(1H-indol-5-yloxy)-N-[(3-nitro-4-{[3-(3-oxopiperazin-1-yl)propyl]amino}phenyl)sulfonyl]benzamide]",1275.3
4,"CC1(C)CCC(CN2CCN(c3ccc(C(=O)NS(=O)(=O)c4ccc(NCCCN5CCNC(=O)C5)c([N+](=O)[O-])c4)c(Oc4cccc5[nH]ccc45)c3)CC2)=C(c2ccc(Cl)cc2)C1 [EXAMPLE 223, 4-(4-{[2-(4-chlorophenyl)-4,4-dimethylcyclohex-1-en-1-yl]methyl}piperazin-1-yl)-2-(1H-indol-4-yloxy)-N-[(3-nitro-4-{[3-(3-oxopiperazin-1-yl)propyl]amino}phenyl)sulfonyl]benzamide]",574.1
5,"CN1CCC(Nc2ccc(S(=O)(=O)NC(=O)c3ccc(N4CCN(CC5=C(c6ccc(Cl)cc6)CCC(O)C5)CC4)cc3Oc3ccc4[nH]ccc4c3)cc2[N+](=O)[O-])CC1 (stereo not drawn) [EXAMPLE 224, 4-(4-{[2-(4-chlorophenyl)-5-hydroxycyclohex-1-en-1-yl]methyl}piperazin-1-yl)-2-(1H-indol-5-yloxy)-N-({4-[(1-methylpiperidin-4-yl)amino]-3-nitrophenyl}sulfonyl)benzamide]",>99.9
6,"O=C(NS(=O)(=O)c1ccc(NC2CCN(C3CCOCC3)CC2)c([N+](=O)[O-])c1)c1ccc(N2CCN(CC3=C(c4ccc(Cl)cc4)CCC(O)C3)CC2)cc1Oc1ccc2[nH]ccc2c1 (stereo not drawn) [EXAMPLE 225, 4-(4-{[2-(4-chlorophenyl)-5-hydroxycyclohex-1-en-1-yl]methyl}piperazin-1-yl)-2-(1H-indol-5-yloxy)-N-({3-nitro-4-[(1-tetrahydro-2H-pyran-4-ylpiperidin-4-yl)amino]phenyl}sulfonyl)benzamide]",>348.2
7,"CN1CCN(Nc2ccc(S(=O)(=O)NC(=O)c3ccc(N4CCN(CC5=C(c6ccc(Cl)cc6)CCC(O)C5)CC4)cc3Oc3ccc4[nH]ccc4c3)cc2[N+](=O)[O-])CC1 (stereo not drawn) [EXAMPLE 226, 4-(4-{[2-(4-chlorophenyl)-5-hydroxycyclohex-1-en-1-yl]methyl}piperazin-1-yl)-2-(1H-indol-5-yloxy)-N-({4-[(4-methylpiperazin-1-yl)amino]-3-nitrophenyl}sulfonyl)benzamide]",577.7
8,"CC1(C)CCC(CN2CCN(c3ccc(C(=O)NS(=O)(=O)c4ccc(NC5CCN(C6Cc7ccccc7C6)CC5)c([N+](=O)[O-])c4)c(Oc4cccc5[nH]ccc45)c3)CC2)=C(c2ccc(Cl)cc2)C1 [EXAMPLE 227, 4-(4-{[2-(4-chlorophenyl)-4,4-dimethylcyclohex-1-en-1-yl]methyl}piperazin-1-yl)-N-[(4-{[1-(2,3-dihydro-1H-inden-2-yl)piperidin-4-yl]amino}-3-nitrophenyl)sulfonyl]-2-(1H-indol-4-yloxy)benzamide]",>96.6
9,"CC1(C)CCC(CN2CCN(c3ccc(C(=O)NS(=O)(=O)c4ccc(NC5CCN(C6Cc7ccccc7C6)CC5)c([N+](=O)[O-])c4)c(Oc4ccc5[nH]ccc5c4)c3)CC2)=C(c2ccc(Cl)cc2)C1 [EXAMPLE 228, 4-(4-{[2-(4-chlorophenyl)-4,4-dimethylcyclohex-1-en-1-yl]methyl}piperazin-1-yl)-N-[(4-{[1-(2,3-dihydro-1H-inden-2-yl)piperidin-4-yl]amino}-3-nitrophenyl)sulfonyl]-2-(1H-indol-5-yloxy)benzamide]",>141.4
10,"CC1(C)CCC(CN2CCN(c3ccc(C(=O)NS(=O)(=O)c4ccc(NCC5(N6CCOCC6)CCCCC5)c([N+](=O)[O-])c4)c(Oc4ccc5[nH]ccc5c4)c3)CC2)=C(c2ccc(Cl)cc2)C1 [EXAMPLE 229, 4-(4-{[2-(4-chlorophenyl)-4,4-dimethylcyclohex-1-en-1-yl]methyl}piperazin-1-yl)-2-(1H-indol-5-yloxy)-N-[(4-{[(1-morpholin-4-ylcyclohexyl)methyl]amino}-3-nitrophenyl)sulfonyl]benzamide]",>13.4
11,"CC1(C)CCC(CN2CCN(c3ccc(C(=O)NS(=O)(=O)c4ccc(NC5CCN(Cc6nccs6)CC5)c([N+](=O)[O-])c4)c(Oc4ccc5[nH]ccc5c4)c3)CC2)=C(c2ccc(Cl)cc2)C1 [EXAMPLE 230, 4-(4-{[2-(4-chlorophenyl)-4,4-dimethylcyclohex-1-en-1-yl]methyl}piperazin-1-yl)-2-(1H-indol-5-yloxy)-N-[(3-nitro-4-{[1-(1,3-thiazol-2-ylmethyl)piperidin-4-yl]amino}phenyl)sulfonyl]benzamide]",>74.8
12,"CC1(C)CCC(CN2CCN(c3ccc(C(=O)NS(=O)(=O)c4ccc(NC5CCN(Cc6cscn6)CC5)c([N+](=O)[O-])c4)c(Oc4ccc5[nH]ccc5c4)c3)CC2)=C(c2ccc(Cl)cc2)C1 [EXAMPLE 231, 4-(4-{[2-(4-chlorophenyl)-4,4-dimethylcyclohex-1-en-1-yl]methyl}piperazin-1-yl)-2-(1H-indol-5-yloxy)-N-[(3-nitro-4-{[1-(1,3-thiazol-4-ylmethyl)piperidin-4-yl]amino}phenyl)sulfonyl]benzamide]",>718.8
13,"CC1(C)CCC(CN2CCN(c3ccc(C(=O)NS(=O)(=O)c4ccc(NCC5(CO)CCOCC5)c([N+](=O)[O-])c4)c(Oc4ccc5[nH]ccc5c4)c3)CC2)=C(c2ccc(Cl)cc2)C1 [EXAMPLE 232, 4-(4-{[2-(4-chlorophenyl)-4,4-dimethylcyclohex-1-en-1-yl]methyl}piperazin-1-yl)-N-{[4-({[4-(hydroxymethyl)tetrahydro-2H-pyran-4-yl]methyl}amino)-3-nitrophenyl]sulfonyl}-2-(1H-indol-5-yloxy)benzamide]",429.1
14,"CC1(C)CCC(CN2CCN(c3ccc(C(=O)NS(=O)(=O)c4ccc(NN5CCN(CCO)CC5)c([N+](=O)[O-])c4)c(Oc4ccc5[nH]ccc5c4)c3)CC2)=C(c2ccc(Cl)cc2)C1 [EXAMPLE 233, 4-(4-{[2-(4-chlorophenyl)-4,4-dimethylcyclohex-1-en-1-yl]methyl}piperazin-1-yl)-N-[(4-{[4-(2-hydroxyethyl)piperazin-1-yl]amino}-3-nitrophenyl)sulfonyl]-2-(1H-indol-5-yloxy)benzamide]",>2714.3
15,"CN1CC[C@H](Nc2ccc(S(=O)(=O)NC(=O)c3ccc(N4CCN(CC5=C(c6ccc(Cl)cc6)CC(C)(C)CC5)CC4)cc3Oc3ccc4[nH]ccc4c3)cc2[N+](=O)[O-])C1 [EXAMPLE 234, 4-(4-{[2-(4-chlorophenyl)-4,4-dimethylcyclohex-1-en-1-yl]methyl}piperazin-1-yl)-2-(1H-indol-5-yloxy)-N-[(4-{[(3S)-1-methylpyrrolidin-3-yl]amino}-3-nitrophenyl)sulfonyl]benzamide]",66.3
16,"CC1(C)CCC(CN2CCN(c3ccc(C(=O)NS(=O)(=O)c4ccc(NC5CCN(CCCF)CC5)c([N+](=O)[O-])c4)c(Oc4ccc5[nH]ccc5c4)c3)CC2)=C(c2ccc(Cl)cc2)C1 [EXAMPLE 235, 4-(4-{[2-(4-chlorophenyl)-4,4-dimethylcyclohex-1-en-1-yl]methyl}piperazin-1-yl)-N-[(4-{[1-(3-fluoropropyl)piperidin-4-yl]amino}-3-nitrophenyl)sulfonyl]-2-(1H-indol-5-yloxy)benzamide]",231.4
17,"CC1(C)CCC(CN2CCN(c3ccc(C(=O)NS(=O)(=O)c4ccc(NCC5CCOCC5)c([N+](=O)[O-])c4)c(Oc4ccc5[nH]ccc5c4)c3)CC2CO)=C(c2ccc(Cl)cc2)C1 (stereo not drawn) [EXAMPLE 236, 4-[4-{[2-(4-chlorophenyl)-4,4-dimethylcyclohex-1-en-1-yl]methyl}-3-(hydroxymethyl)piperazin-1-yl]-2-(1H-indol-5-yloxy)-N-({3-nitro-4-[(tetrahydro-2H-pyran-4-ylmethyl)amino]phenyl}sulfonyl)benzamide]",>1787.6
18,"CC1(C)CCC(CN2CCN(c3ccc(C(=O)NS(=O)(=O)c4ccc(NCC5(N)CCOCC5)c([N+](=O)[O-])c4)c(Oc4ccc5[nH]ccc5c4)c3)CC2CO)=C(c2ccc(Cl)cc2)C1 (stereo not drawn) [EXAMPLE 237, N-[(4-{[(4-aminotetrahydro-2H-pyran-4-yl)methyl]amino}-3-nitrophenyl)sulfonyl]-4-[4-{[2-(4-chlorophenyl)-4,4-dimethylcyclohex-1-en-1-yl]methyl}-3-(hydroxymethyl)piperazin-1-yl]-2-(1H-indol-5-yloxy)benzamide]",668.3
